# “Also recorded” adds a separate entry of the source.
# Experiments:
# [1] = test system: isolated human hair follicles; test: in vitro hair follicle growth test (elongation of isolated human hair follicles in culture medium); format: cell-based
# Method: The effect of compounds on hair growth was assessed using an in vitro test which measures the elongation of isolated human hair follicles in a culture medium.
# This test includes the important step of isolating hair follicles having an undamaged hair bulb from human skin, for example, facelift skin, by microdissection.
# The critical step of separating the hair follicle with intact undamaged hair bulb from the subcutaneous fatty tissue in which it is situated accordingly involves severing the hair shaft of the follicle at a point below the epidermis of skin surface, so as to leave the hair bulb intact and undamaged while still bearing a portion of the hair shaft.
# Preferably, the hair shaft of the follicle is severed at the dermal-subcutaneous fat interface.
# Any suitable cutting instrument can be employed to sever the hair shaft in this manner, but a keratotome or a scalpel are preferred.
# The hair bulb with a hair Shaft stump attached is then isolated from the skin by mechanically separating the hair from loosely adhering subcutaneous fat which normally surrounds the hair bulb. This is achieved after the dermis or upper layer of the skin has been separated and removed, to avoid damaging the hair bulb as it is pulled away.
# The hair bulb together with hair shaft stump attached, is then transferred in an otherwise undamaged and fully functioning, viable state to a nutrient medium.
# The hair follicles isolated by the technique described herein are transferred to a suitable culture medium for subsequent testing of substances that can then influence their future development.
# The procedure now to be described represents a preferred method of culture and testing of hair growth.
# In accordance with the preferred method of culture, isolated hair follicles, […], are maintained in 1 ml of Williams E medium, either with or without a test hair growth substance, supplemented with […] (Penicillin and Streptomyein), Insulin (10 ng/ml) and Hydrocortisone (10 ng/ml). The medium was incubated at 37° C. in an atmosphere of 5% CO2 +95% air in individual wells of a 24 multiwell dish (Corning), which permits detailed measurements to be made of the length of individual hair follicles. The medium was refreshed once during the experiment after 4 days.
# Williams E medium is available from FLOW Laboratory under Catalogue No. 12-502. […]
# Daily growth rate and cumulative growth for each follicle were calculated by measuring the change in length of the follicles each day and from this the average of all the follicles was calculated.
# The response of an isolated hair follicle to a test substance, can accordingly be assessed by measuring the increase in length, if any, in the presence of a test substance against a control. […]
# [2] = storage stability in aqueous hair treatment composition (shampoo, conditioner or tonic); format: physicochemical; details: ambient temperature, 3 months
# Excerpt: From these observations, it was realised that the αNH2 group of glutamine should be protected in order to stablise the molecule.
# [3] = 2 mM in Williams E medium & glucose
compound,measurement,setting,value
"NC(=O)CC[C@H](N)C(=O)O [Glutamine, glutamine]",Amount of hair grown in one week,[1]; [3],2.02 mm
same,Average daily rate of growth of hair over one week,[1]; [3],0.277 mm/d
same,potency as hair growth promoter after storage,[1]; after 3 months storage at 20° C.,diminished significantly
same,effect on linear hair growth (in words),"[1]; isolated human follicles in vitro, compared with the control",potent promoter of linear hair growth; also recorded: significant increase in hair growth
same,stability during storage in aqueous hair treatment composition,[2],a significant amount of the glutamine had been converted to pyroglutamic acid and ammonia

# — US5559092A, “Cosmetic composition” (Chesebrough-Pond's USA Co. Division of Conopco, Inc., priority 1992, dated 1996)
